Assay results as given in publication PMC2000878, “Module structure of interphotoreceptor retinoid-binding protein (IRBP) may provide bases for its complex role in the visual cycle – structure/function study of Xenopus IRBP” (BMC Biochemistry, 2007).
Like-named read-outs stand apart in the source and are kept apart here.

What was measured:
Test in all cases: Competitive fluorescence titration of all-trans retinol with 11-cis retinaldehyde
Format in all cases: binding
[1] = target: T1, Xenopus IRBP Module 3 (Xenopus laevis, UniProt Q7SZI7); conditions: protein 1.10 μM
T1 construct: cDNAs corresponding to the full-length IRBP, module 1, and module 2 were expressed in pThioHis; modules 3 and 4 were expressed in pTrxFus; made in house; host or cells: E. coli GI724 / GI698 (pTrxFus)
Protocol: (§1) Figure 9 Competitive inhibition by 11-cis retinaldehyde of all-trans retinol binding to the individual modules of Xenopus IRBP. Binding of all-trans retinol to the individual modules was measured by fluorescence enhancement in the presence of varying amounts of 11-cis retinal. Panels A through D correspond to modules 1 through 4 respectively. […] Three dimensional nonlinear regression was used to determine the number of binding sites, the dissociation constant of all-trans retinol, and the dissociation constant of 11-cis retinal for each of the individual modules. The concentrations of the proteins used in the titrations were as follows: module 1 (0.99 μM; panel A); module 2 (1.10 μM; panel B); module 3 (1.10 μM; panel C); module 4 (1.00 μM; panel D).
(§2) To describe the displacement of all-trans retinol by 11-cis retinaldehyde, Equation 1 was modified to take into account the competition between the two ligands. The apparent dissociation constants for all-trans retinol measured under these conditions is related to the dissociation constant of 11-cis retinaldehyde through the following expression.
(§3) Kapp=Kdall−trans[1+Rt11−cis/Kd11−cis] MathType@MTEF@5@5@+=feaafiart1ev1aaatCvAUfKttLearuWrP9MDH5MBPbIqV92AaeXatLxBI9gBaebbnrfifHhDYfgasaacH8akY=wiFfYdH8Gipec8Eeeu0xXdbba9frFj0=OqFfea0dXdd9vqai=hGuQ8kuc9pgc9s8qqaq=dirpe0xb9q8qiLsFr0=vr0=vr0dc8meaabaqaciaacaGaaeqabaqabeGadaaakeaacqWGlbWsdaWgaaWcbaGaemyyaeMaemiCaaNaemiCaahabeaakiabg2da9iabdUealnaaDaaaleaacqWGKbazaeaacqWGHbqycqWGSbaBcqWGSbaBcqGHsislcqWG0baDcqWGYbGCcqWGHbqycqWGUbGBcqWGZbWCaaGcdaWadaqaaiabigdaXiabgUcaRmaalaaabaGaemOuai1aa0baaSqaaiabdsha0bqaaiabigdaXiabigdaXiabgkHiTiabdogaJjabdMgaPjabdohaZbaaaOqaaiabdUealnaaDaaaleaacqWGKbazaeaacqaIXaqmcqaIXaqmcqGHsislcqWGJbWycqWGPbqAcqWGZbWCaaaaaaGccaGLBbGaayzxaaaaaa@58DE@
(§4) The origin of the above expression is discussed in reviews dealing with competition assays. Substitution of equation 2 into equation 1 yields the following expression.
(§5) Fenh=C1+C2[Rtall−trans−(Rtall−trans+NPt+Kdall−trans+Kdall−transRt11−cis/Kd11−cis)^2−4NPtRtall−trans] MathType@MTEF@5@5@+=feaafiart1ev1aaatCvAUfKttLearuWrP9MDH5MBPbIqV92AaeXatLxBI9gBaebbnrfifHhDYfgasaacH8akY=wiFfYdH8Gipec8Eeeu0xXdbba9frFj0=OqFfea0dXdd9vqai=hGuQ8kuc9pgc9s8qqaq=dirpe0xb9q8qiLsFr0=vr0=vr0dc8meaabaqaciaacaGaaeqabaqabeGadaaakeaacqWGgbGrdaWgaaWcbaGaemyzauMaemOBa4MaemiAaGgabeaakiabg2da9iabdoeadnaaBaaaleaacqaIXaqmaeqaaOGaey4kaSIaem4qam0aaSbaaSqaaiabikdaYaqabaGcdaWadaqaaiabdkfasnaaDaaaleaacqWG0baDaeaacqWGHbqycqWGSbaBcqWGSbaBcqGHsislcqWG0baDcqWGYbGCcqWGHbqycqWGUbGBcqWGZbWCaaGccqGHsisldaGcaaqaamaabmaabaGaemOuai1aa0baaSqaaiabdsha0bqaaiabdggaHjabdYgaSjabdYgaSjabgkHiTiabdsha0jabdkhaYjabdggaHjabd6gaUjabdohaZbaakiabgUcaRiabd6eaojabdcfaqnaaBaaaleaacqWG0baDaeqaaOGaey4kaSIaem4saS0aa0baaSqaaiabdsgaKbqaaiabdggaHjabdYgaSjabdYgaSjabgkHiTiabdsha0jabdkhaYjabdggaHjabd6gaUjabdohaZbaakiabgUcaRmaalaaabaGaem4saS0aa0baaSqaaiabdsgaKbqaaiabdggaHjabdYgaSjabdYgaSjabgkHiTiabdsha0jabdkhaYjabdggaHjabd6gaUjabdohaZbaakiabdkfasnaaDaaaleaacqWG0baDaeaacqaIXaqmcqaIXaqmcqGHsislcqWGJbWycqWGPbqAcqWGZbWCaaaakeaacqWGlbWsdaqhaaWcbaGaemizaqgabaGaeGymaeJaeGymaeJaeyOeI0Iaem4yamMaemyAaKMaem4CamhaaaaaaOGaayjkaiaawMcaamaaCaaaleqabaGaeGOmaidaaOGaeyOeI0IaeGinaqJaemOta4Kaemiuaa1aaSbaaSqaaiabdsha0bqabaGccqWGsbGudaqhaaWcbaGaemiDaqhabaGaemyyaeMaemiBaWMaemiBaWMaeyOeI0IaemiDaqNaemOCaiNaemyyaeMaemOBa4Maem4CamhaaaqabaaakiaawUfacaGLDbaaaaa@A768@

[2] = target: Xenopus IRBP Module 1 (Xenopus laevis, UniProt Q7SZI7); conditions: protein 0.99 μM
Protocol: as §1, §2, §3, §4, §5

[3] = target: T2, Xenopus IRBP Module 2 (Xenopus laevis, UniProt Q7SZI7)
T2 construct: cDNAs corresponding to the full-length IRBP, module 1, and module 2 were expressed in pThioHis; modules 3 and 4 were expressed in pTrxFus; made in house; host or cells: E. coli Top10 (pThioHis)
T2 sequence (Q7SZI7 319-617 limits assumed): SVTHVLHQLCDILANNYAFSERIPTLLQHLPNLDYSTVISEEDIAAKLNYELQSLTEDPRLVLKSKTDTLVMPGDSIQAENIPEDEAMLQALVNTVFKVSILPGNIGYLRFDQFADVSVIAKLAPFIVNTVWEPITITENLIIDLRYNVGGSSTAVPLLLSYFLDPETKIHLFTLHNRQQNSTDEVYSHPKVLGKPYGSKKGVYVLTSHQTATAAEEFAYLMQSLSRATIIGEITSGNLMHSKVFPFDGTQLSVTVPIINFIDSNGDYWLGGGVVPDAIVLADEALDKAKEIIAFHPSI
Protocol: as §1, §2, §3, §4, §5

[4] = target: T3, Xenopus IRBP Module 4 (Xenopus laevis, UniProt Q7SZI7); conditions: protein 1.00 μM
T3 construct: cDNAs corresponding to the full-length IRBP, module 1, and module 2 were expressed in pThioHis; modules 3 and 4 were expressed in pTrxFus; made in house; host or cells: E. coli GI724 / GI698 (pTrxFus)
Protocol: as §1, §2, §3, §4, §5

[5] = target: T4, full-length Xenopus IRBP (Xenopus laevis, UniProt Q7SZI7)
T4 construct: We expressed the full-length IRBP as well as its individual modules as thioredoxin-fusion proteins using pTrxFus and pThioHis vectors; made in house; host or cells: E. coli Top10 (pThioHis)
Excerpt: In Figure 8B, full-length Xenopus IRBP was titrated with all-trans retinol in the presence of different fixed concentrations of 11-cis retinaldehyde. Binding of all-trans retinol to Xenopus IRBP was followed by monitoring the enhancement of its fluorescence. […] Equation 3 (see methods) was used to analyze the data generating the 3-dimensional representation of the fit shown graphically in Figure 8B.
as §2, §3, §4
Fenh=C1+C2[Rtall−trans−(Rtall−trans+NPt+Kdall−trans+Kdall−transRt11−cis/Kd11−cis)^2−4NPtRtall−trans] […]

[6] = competition, in presence of 11-cis retinal, read-out: Kd All-trans retinol
[7] = competition with all-trans retinol, read-out: Kd 11-cis retinal

T4 sequence (Q7SZI7 23-1219): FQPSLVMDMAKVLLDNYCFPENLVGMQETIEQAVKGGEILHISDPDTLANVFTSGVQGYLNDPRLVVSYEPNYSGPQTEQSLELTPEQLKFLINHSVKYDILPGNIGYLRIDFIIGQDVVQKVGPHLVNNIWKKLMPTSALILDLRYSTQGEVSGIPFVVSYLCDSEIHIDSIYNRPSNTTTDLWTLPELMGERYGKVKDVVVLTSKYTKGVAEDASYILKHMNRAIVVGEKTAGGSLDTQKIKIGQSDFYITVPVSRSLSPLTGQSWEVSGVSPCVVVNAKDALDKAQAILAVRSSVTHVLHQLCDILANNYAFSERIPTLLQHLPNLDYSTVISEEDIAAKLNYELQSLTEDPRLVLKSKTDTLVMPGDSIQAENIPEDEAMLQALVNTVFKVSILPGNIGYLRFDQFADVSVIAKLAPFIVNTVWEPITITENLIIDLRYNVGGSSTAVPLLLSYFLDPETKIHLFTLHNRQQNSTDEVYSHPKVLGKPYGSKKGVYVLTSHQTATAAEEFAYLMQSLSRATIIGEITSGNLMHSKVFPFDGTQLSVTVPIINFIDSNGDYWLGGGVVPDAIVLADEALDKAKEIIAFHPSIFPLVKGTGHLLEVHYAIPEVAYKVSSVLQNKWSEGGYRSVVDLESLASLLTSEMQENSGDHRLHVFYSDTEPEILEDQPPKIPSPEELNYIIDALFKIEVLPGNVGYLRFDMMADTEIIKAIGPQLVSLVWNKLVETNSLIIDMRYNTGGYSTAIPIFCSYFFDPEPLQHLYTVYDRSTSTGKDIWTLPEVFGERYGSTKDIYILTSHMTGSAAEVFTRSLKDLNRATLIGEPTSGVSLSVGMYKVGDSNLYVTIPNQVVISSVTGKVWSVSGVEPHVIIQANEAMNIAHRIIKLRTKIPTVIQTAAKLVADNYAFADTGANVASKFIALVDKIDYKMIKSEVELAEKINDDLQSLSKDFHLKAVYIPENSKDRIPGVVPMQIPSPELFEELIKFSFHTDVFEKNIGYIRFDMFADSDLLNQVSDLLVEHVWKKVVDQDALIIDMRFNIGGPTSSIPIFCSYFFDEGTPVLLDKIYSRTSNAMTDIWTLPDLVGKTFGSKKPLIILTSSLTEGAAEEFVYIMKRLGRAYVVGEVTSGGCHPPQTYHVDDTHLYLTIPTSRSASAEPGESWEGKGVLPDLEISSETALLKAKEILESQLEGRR
T1 sequence (Q7SZI7 616-912): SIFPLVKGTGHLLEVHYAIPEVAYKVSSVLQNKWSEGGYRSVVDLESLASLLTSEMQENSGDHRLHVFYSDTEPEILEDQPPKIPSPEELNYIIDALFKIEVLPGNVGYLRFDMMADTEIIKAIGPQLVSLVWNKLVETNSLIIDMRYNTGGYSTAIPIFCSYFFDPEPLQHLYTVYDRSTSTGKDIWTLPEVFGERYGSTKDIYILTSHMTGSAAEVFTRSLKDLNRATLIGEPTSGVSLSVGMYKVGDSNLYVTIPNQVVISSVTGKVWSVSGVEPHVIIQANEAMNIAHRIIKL
Xenopus IRBP Module 1, sequence (Q7SZI7 23-318): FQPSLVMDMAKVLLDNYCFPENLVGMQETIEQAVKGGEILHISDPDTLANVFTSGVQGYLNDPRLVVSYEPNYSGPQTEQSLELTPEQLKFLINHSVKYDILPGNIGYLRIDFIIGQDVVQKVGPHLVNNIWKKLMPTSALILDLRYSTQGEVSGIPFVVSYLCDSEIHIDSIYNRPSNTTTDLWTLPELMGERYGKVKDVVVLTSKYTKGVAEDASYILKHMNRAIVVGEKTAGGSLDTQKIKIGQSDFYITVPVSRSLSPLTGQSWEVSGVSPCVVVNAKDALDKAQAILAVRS
T3 sequence (Q7SZI7 923-1219): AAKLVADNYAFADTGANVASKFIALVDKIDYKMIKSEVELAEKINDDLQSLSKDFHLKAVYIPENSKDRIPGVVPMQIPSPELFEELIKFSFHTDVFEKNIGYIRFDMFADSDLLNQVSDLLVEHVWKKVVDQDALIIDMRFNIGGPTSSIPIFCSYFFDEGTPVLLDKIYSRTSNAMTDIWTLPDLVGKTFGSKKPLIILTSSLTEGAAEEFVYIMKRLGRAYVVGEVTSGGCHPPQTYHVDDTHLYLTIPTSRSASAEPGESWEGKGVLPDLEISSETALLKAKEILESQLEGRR

Kd [1, 6] | Kd [2, 6] | Kd ([3]; competition, in presence of 11-cis retinal, protein 1.10 μM, read-out: Kd All-trans retinol) | Kd [4, 6] | Kd ([5]; competition, in presence of fixed concentrations of 11-cis retinaldehyde, read-out: Kd All-trans retinol) | Kd [1, 7] | Binding sites (N) ([1]; competition, shared sites) | Kd [2, 7] | Binding sites (N) ([2]; competition, shared sites) | Kd ([3]; competition with all-trans retinol, protein 1.10 μM, read-out: Kd 11-cis retinal) | Binding sites (N) ([3]; competition, shared sites, protein 1.10 μM) | Kd [4, 7] | Binding sites (N) ([4]; competition, shared sites) | Kd [5, 7] | Binding sites (N) ([5]; competition, sites assumed shared by all-trans retinol and 11-cis retinal) | Compound | Ligand selectivity of module 2 ([3]; comparison of Kd for all-trans retinol and 11-cis retinaldehyde)
840 ± 220 nM | 670 ± 170 nM | 74 ± 37 nM | 410 ± 90 nM | 220 ± 130 nM | – | – | – | – | – | – | – | – | – | – | CC1=C(/C=C/C(C)=C/C=C/C(C)=C/CO)C(C)(C)CCC1 [all-trans retinol] | selectivity for all-trans retinol over 11-cis retinaldehyde
– | – | – | – | – | 560 ± 110 nM | 1.90 ± 0.28 | 570 ± 110 nM | 1.29 ± 0.24 | 280 ± 130 nM | 1.22 ± 0.10 | 290 ± 50 nM | 1.47 ± 0.18 | 210 ± 100 nM | 3.53 ± 0.19 | CC1=C(/C=C/C(C)=C/C=C/C(C)=C/C=O)C(C)(C)CCC1 [11-cis retinal] | –
